Source: article PMC11855827, “High-Throughput Screening of Five Compound Libraries for Anthelmintic Activity and Toxicity Leads to the Discovery of Two Flavonoid Compounds” (International Journal of Molecular Sciences, 2025)
Where two headings read alike, the source gives them in different places.

Test system: C. elegans
Experiment: microbe, parasite or virus in culture
Details: Caenorhabditis elegans
[1] = 0 h, read-out: Percentage of motility inhibition 0 h, Table S2, C. elegans SS assay, 110 μM, 0 h, averages of 4 data points
[2] = 24 h, read-out: Percentage of motility inhibition 24 h, Table S2, C. elegans SS assay, 110 μM, 24 h, averages of 4 data points
[3] = 0 h, read-out: Percentage of motility inhibition 0 h
[4] = 24 h, read-out: Percentage of motility inhibition 24 h

Compound | inhibition at 110 µM [1] | inhibition at 110 µM [2] | inhibition at 110 µM [3] | inhibition at 110 µM [4]
C=C1C(=O)O[C@@]23[C@H]1CC[C@@H](C)[C@@H]2CC[C@@]1(C)O[C@@H]31 [Arteannuin B] | 13% | 11% | – | –
C=C1C(=O)O[C@@H]2O[C@@]3(C)CC[C@H]4[C@H](C)CC[C@@H]1[C@@]24OO3 [Artemisitene] | 0% | 9% | – | –
CC[C@@H]1/C=C(\C)C[C@H](C)C[C@H](OC)[C@H]2O[C@@](O)(C(=O)C(=O)N3CCCC[C@H]3C(=O)O[C@H](/C(C)=C/[C@@H]3CC[C@@H](O)[C@H](OC)C3)[C@H](C)[C@@H](O)CC1=O)[C@H](C)C[C@@H]2OC [Ascomycin] | 6% | 0% | – | –
C[C@H]1[C@H](C)CC[C@]2(C(=O)O)CC[C@]3(C)C(=CC[C@@H]4[C@@]5(C)C[C@@H](O)[C@H](O)[C@@](C)(CO)[C@@H]5CC[C@]43C)[C@H]12 [Asiatic acid] | 41% | 55% | – | –
C[C@@H]1O[C@@H](O[C@H]2[C@H](O)[C@@H](O)[C@H](OC[C@H]3O[C@@H](OC(=O)[C@]45CCC(C)(C)C[C@H]4C4=CC[C@@H]6[C@@]7(C)C[C@@H](O)[C@H](O)[C@@](C)(CO)[C@@H]7[C@H](O)C[C@@]6(C)[C@]4(C)CC5)[C@H](O)[C@@H](O)[C@@H]3O)O[C@@H]2CO)[C@H](O)[C@H](O)[C@H]1O [Asiaticoside B] | 0% | 5% | – | –
CC(=O)OCC1=C[C@@H]2OC(=O)C3=CO[C@@H](O[C@@H]4O[C@H](CO)[C@@H](O)[C@H](O)[C@H]4O)[C@H]1[C@@H]32 [Asperuloside] | 0% | 5% | – | –
CC(=O)OCC1=C[C@H](O)[C@@H]2C(C(=O)O)=CO[C@@H](O[C@@H]3O[C@H](CO)[C@@H](O)[C@H](O)[C@H]3O)[C@H]12 [Asperulosidic Acid] | 2% | 0% | – | –
C[C@@H]1O[C@@H](O[C@H]2C(=O)c3c(O)cc(O)cc3O[C@@H]2c2ccc(O)c(O)c2)[C@H](O)[C@H](O)[C@H]1O [Astilbin] | – | – | 31% | 0%
O=c1c(O[C@@H]2O[C@H](CO)[C@@H](O)[C@H](O)[C@H]2O)c(-c2ccc(O)cc2)oc2cc(O)cc(O)c12 [Astragalin] | 1% | 1% | – | –
O=C1C(O)=C([C@H]2CC[C@H](c3ccc(Cl)cc3)CC2)C(=O)c2ccccc21 [Atovaquone] | 18% | 2% | – | –
C=C1CCC[C@]2(C)C[C@]3(O)OC(=O)C(C)=C3C[C@@H]12 [Atractylenolide III] | 3% | 6% | – | –
C=C1CCC[C@]2(C)C[C@@H]3OC(=O)C(C)=C3C[C@@H]12 [Atractylenolide II] | 10% | 2% | – | –
OCC1=C[C@@H](O)[C@@H]2C=CO[C@@H](O[C@@H]3O[C@H](CO)[C@@H](O)[C@H](O)[C@H]3O)[C@H]12 [Aucubin] | 10% | 19% | – | –
O=c1c(O[C@@H]2O[C@@H](CO)[C@H](O)[C@H]2O)c(-c2ccc(O)c(O)c2)oc2cc(O)cc(O)c12 [Avicularin] | 33% | 21% | – | –
COc1cc(O)c2c(=O)c(OC)c(-c3ccc(OC)c(O)c3)oc2c1 [Ayanin] | – | – | 0% | 22%
C/C=C(\C)C(=O)O[C@H]1C[C@@H](OC(C)=O)[C@@]2(C(=O)OC)CO[C@H]3[C@@H](O)[C@@](C)([C@]45O[C@@]4(C)[C@H]4C[C@@H]5O[C@@H]5OC=C[C@@]54O)[C@H]4[C@]1(CO[C@]4(O)C(=O)OC)[C@@H]32 [Azadirachtin] | 24% | 4% | – | –
O=C(O)CCCCCCCC(=O)O [Azelaic acid] | 0% | 0% | – | –
CC[C@H]1OC(=O)[C@H](C)[C@@H](O[C@H]2C[C@@](C)(OC)[C@@H](O)[C@H](C)O2)[C@H](C)[C@@H](O[C@@H]2O[C@H](C)C[C@H](N(C)C)[C@H]2O)[C@](C)(O)C[C@@H](C)CN(C)[C@H](C)[C@@H](O)[C@]1(C)O [Azithromycin] | 23% | 37% | – | –
Cn1c(N2CCCCS2(=O)=O)nc(C(=O)NCc2ccc(F)cc2)c(O)c1=O [BMS‐707035] | 0% | 1% | – | –
C[C@H]1COC2(CCN(c3nc(=O)c4cc(C(F)(F)F)cc([N+](=O)[O-])c4s3)CC2)O1 [BTZ043] | 0% | 5% | – | –
CC(=O)O[C@H]1C(=O)[C@@]2(C)[C@H]([C@H](OC(=O)c3ccccc3)[C@]3(O)C[C@H](O)C(C)=C1C3(C)C)[C@]1(OC(C)=O)CO[C@@H]1C[C@@H]2O [Baccatin III] | 0% | 0% | – | –
CC(C)=C[C@H]1C[C@](C)(O)[C@@H]2[C@H]3CC[C@@H]4[C@@]5(C)CC[C@H](O[C@@H]6O[C@H](CO)[C@@H](O)[C@H](O[C@@H]7O[C@H](CO)[C@@H](O)[C@H](O)[C@H]7O)[C@H]6O[C@@H]6O[C@@H](CO)[C@H](O)[C@H]6O)C(C)(C)[C@@H]5CC[C@@]4(C)[C@@]34CO[C@@]2(C4)O1 [Bacoside A3] | 3% | 0% | – | –
